“And” between values parts separate entries of the source, which are not always exact repeats. Identical values can stand only once. Like-named read-outs stand apart in the source and are kept apart here.
Assays:
[1] = Stability of iosimenol to autoclave sterilization (20 min at 121° C.), free iodide measured; assay type: physicochemical; details: for I− after / I− before: single samples
Protocol: Samples of Iosimenol were formulated in 20 mM TRIS+5 mM citric acid, TRIS/HCl and 10 mM TRIS+3.3 mM citrate. Samples were then autoclaved for 20 minutes at 121° C. and the amounts of free iodine measured.
(§1) A 5 micron C18 column 25 cm×4.6 mm ID was eluted with 30% acetonitrile/70% 0.05 M KH2PO4 containing 7 ml/L of 40% tetrabutyl ammonium hydroxide. 20 μl of a 10 μg I^−/ml was the standard. 20 μl of a test sample of iosimenol was injected and UV absorbance measured at 230 nm, 0.2 AU. Under these conditions, the iodide standard eluted after 5.6 minutes and gave an area of “X” counts.
(§2) Iodide was alternately determined by extraction and spectrophotometry according to USP24/NF19, p 911 (1995). In general, the solution containing iodide is oxidized in the presence of acid, with sodium nitrite and then extracted into toluene which is then read at a wavelength of 500 nm. Comparison of standard samples with experimental samples yields the amount of iodide present in the sample.

[2] = Separate study: stability of iosimenol after autoclaving in TRIS/HCl and TRIS/citric acid (pH, iodide release); assay type: physicochemical; details: 121° C. for 20 min; for pH after autoclaving / ΔI−: pre-autoclaving pH 7.00, Ca/Na EDTA 0.1 mg/ml, 340-355 mg I/ml
Protocol: as §1, §2

[3] = system: mice; assay: Intravenous LD50 (systemic tolerance) in mice; assay type: in vivo
Protocol: (§3) To examine the effects of the TRIS/citrate buffer system of this invention on the biological tolerance, using standard methods, we assessed intravenous murine and rat LD50 of iosimenol formulated either in TRIS/HCl or in the novel TRIS/citric acid buffers, and compared the results with those published for the clinically employed nonionic dimer iodixanol (formulated in TRIS/HCl buffer; Heglund IF et al., Acta Radiol. Suppl. 1995:399:69-82). Murine and rat LD50 were obtained by 1 ml/min injection of 340 mg I/ml; data at 7 days and based on the 50% survival of the animals was expressed as g I/kg bw (Table 3).

[4] = system: rats; assay: Intravenous LD50 (systemic tolerance) in rats; assay type: in vivo
Protocol: as §3

[5] = system: mice; details: Control, formulated in TRIS/HCl; intravenous; published (Heglund et al. 1995); cited from earlier work
[6] = system: rats; details: Control, formulated in TRIS/HCl; intravenous; published (Heglund et al. 1995); cited from earlier work
[7] = Buffer 10 mM TRIS + 3 mM citric acid

NC(=O)c1c(I)c(C(=O)NCC(O)CO)c(I)c(N(CC(O)CO)C(=O)CC(=O)N(CC(O)CO)c2c(I)c(C(N)=O)c(I)c(C(=O)NCC(O)CO)c2I)c1I (stereo not shown) [Iosimenol, N,N′-Bis[3-carbamoyl-5-(2,3-dihydroxypropyl-carbamoyl)-2,4,6-triiodophenyl]-N,N′-bis(2,3-dihydroxypropyl)-malonamide]
Stability on autoclaving (in words) ([1]; 20 mM TRIS and 5 mM citric acid, pH about 6.5 to 7.5, compared with TRIS/HCl or TRIS/citrate in molar equivalent ratio): always somewhat less or equally stable | I− after, Avg. ([1]; Buffer 10 mM TRIS + 3.3 mM citrate, after 20 min at 121° C., average): 21.84 µg/mL | I− after ([1]; Buffer 10 mM TRIS + 3.3 mM citrate, after 20 min at 121° C.): 22.34 µg/mL and 21.51 µg/mL and 21.66 µg/mL | ΔI− ([1]; Buffer 10 mM TRIS + 3.3 mM citrate, after minus before 20 min at 121° C.): +17.84 μg/ml | I− before, Avg. ([1]; Buffer 10 mM TRIS + 3.3 mM citrate, before autoclaving, average): 4.00 µg/mL | I− before ([1]; Buffer 10 mM TRIS + 3.3 mM citrate, before autoclaving): 3.99 µg/mL and 4.17 µg/mL and 3.83 µg/mL | I− after, Avg. ([1]; Buffer 20 mM TRIS + 5 mM citric acid, after 20 min at 121° C., average): 16.90 µg/mL | I− after ([1]; Buffer 20 mM TRIS + 5 mM citric acid, after 20 min at 121° C.): 15.80 µg/mL and 15.96 µg/mL and 16.11 µg/mL and 16.53 µg/mL and 18.87 µg/mL and 18.13 µg/mL | ΔI− ([1]; Buffer 20 mM TRIS + 5 mM citric acid, after minus before 20 min at 121° C.): +12.90 μg/ml | I− before, Avg. ([1]; Buffer 20 mM TRIS + 5 mM citric acid, before autoclaving, average): 4.00 µg/mL | I− before ([1]; Buffer 20 mM TRIS + 5 mM citric acid, before autoclaving): 4.08 µg/mL and 3.94 µg/mL and 3.42 µg/mL and 3.59 µg/mL and 4.44 µg/mL and 4.52 µg/mL | I− after, average (row not labelled) ([1]; Buffer 20 mM TRIS/HCl, after 20 min at 121° C., average): 14.22 µg/mL | I− after ([1]; Buffer 20 mM TRIS/HCl, after 20 min at 121° C.): 14.07 µg/mL and 14.19 µg/mL and 14.39 µg/mL | ΔI− (row not labelled) ([1]; Buffer 20 mM TRIS/HCl, after minus before 20 min at 121° C.): +9.89 μg/ml | I− before, average (row not labelled) ([1]; Buffer 20 mM TRIS/HCl, before autoclaving, average): 4.33 µg/mL | I− before ([1]; Buffer 20 mM TRIS/HCl, before autoclaving): 4.29 µg/mL and 4.44 µg/mL and 4.27 µg/mL | Stability under autoclaving (in words) ([1]; carboxylic acid neutralized by an amine, compared with TRIS/carboxylic acid where TRIS prevailed or TRIS/HCl): less stable | pH after autoclaving [2, 7]: 6.90 | ΔI− [2, 7]: +24.2 μg/ml | pH after autoclaving ([2]; Buffer 10 mM TRIS/HCl): 6.49 | ΔI− ([2]; Buffer 10 mM TRIS/HCl): +8.7 μg/ml | pH after autoclaving ([2]; Buffer 20 mM TRIS/HCl): 7.00 | ΔI− ([2]; Buffer 20 mM TRIS/HCl): +7 μg/ml | Stability after autoclaving (in words) ([2]; TRIS/citric acid in a non-equivalent ratio compared with TRIS/HCl buffer): lower stability | LD50 mice ([3]; mouse, in vivo, iv): 22.0 g I/kg bw | LD50 in 20 mM TRIS with 5 mM citrate compared with 20 mM TRIS/HCl (in words) ([3]; murine, intravenous): statistically significantly higher LD50 | LD50 rats ([4]; 20 mM TRIS + 5 mM citric acid, intravenous, 1 ml/min injection of 340 mg I/ml, data at 7 days): 23.5 g I/kg bw | LD50 rats ([4]; rat, in vivo, iv): 20.0 g I/kg bw | LD50 in 20 mM TRIS with 5 mM citrate compared with 20 mM TRIS/HCl (in words) ([4]; rat, intravenous): statistically significantly higher LD50

CC(=O)N(CC(O)CN(C(C)=O)c1c(I)c(C(=O)NCC(O)CO)c(I)c(C(=O)NCC(O)CO)c1I)c1c(I)c(C(=O)NCC(O)CO)c(I)c(C(=O)NCC(O)CO)c1I (stereo not shown) [Iodixanol]
LD50 mice [5]: 21.0 g I/kg bw | LD50 rats [6]: 21.0 g I/kg bw

Source: patent US7250153B2, “Contrast media formulations having improved biological tolerance” (Biophysica Research, Inc., priority 2002, dated 2007)
